# Assay: Human HepG2 cell viability assay in 384 well format
# Format: toxicity, cell-based
# Set-up: dose 125 nL, time 70.5 hour; concentration not given beside the values
# Conditions: HepG2 cells, read-out: Inhibition
row,Compound,cytotoxicity at 70.5 h [%]
1,O=C(c1cnccn1)N1CCN2C[C@H](OCc3ccccc3)C[C@H]2C1,-1.37
2,Cc1ccccc1CSc1nc(=O)n(CCO)c2c1CCC2,-9.33
3,N#Cc1cc(F)ccc1NCC1CCN(S(=O)(=O)C(F)F)CC1,-14.3
4,Cc1csc(CN(CC2CCCO2)C(=O)c2occc2C)n1 (stereo not given),22.1
5,CC(=O)N1CCCN(C(=O)NCCCc2cn[nH]c2C)CC1,-2.68
6,O=C(Nc1ccccc1)[C@H]1C[C@@H]2CN(S(=O)(=O)c3ccccc3)C[C@H]1O2,-10.9
7,Cn1cnc2c1CCN(Cc1csc(-c3ccc(F)cc3)n1)C2,-3.43
8,O=C(Nc1nncs1)NC1CCCc2c1cnn2CCO (stereo not given),4.56
9,CC(C)N(C(=O)Cn1cc(Cl)cn1)c1ccccc1,-4.68
10,O=C1CC2(CCN(C(=O)c3cccc(Cl)c3)CC2)CN1,-7.17
11,CC(C)C(NC(=O)c1ccccc1F)C(=O)N1CCC2(CC1)OCCO2 (stereo not given),-1.01
12,Cc1ccnn1CC(=O)N1CCCN(C2Cc3ccccc3C2)CC1,-14.5
13,N#Cc1cn(C2CC2)c(=O)n(CC(O)c2ccccc2C(F)(F)F)c1=O (stereo not given),-15.2
14,CN(Cc1ccccc1)CC1(O)CCCN(CCC2CCCCC2)C1=O (stereo not given),29.6
15,c1ccc(CO[C@H]2CO[C@@]3(CCCN(Cc4cccnc4)C3)C2)nc1,-24.8
16,Cc1ccc(NC(=O)NCC2CCS(=O)(=O)C2)cc1Cl (stereo not given),0.575
17,Cc1cncc(C2CCCN2CCO)n1 (stereo not given),-9.94
18,COCc1cnc2n1CCN(S(=O)(=O)N(C)C)C2C (stereo not given),-15.1
19,COCCSCC(=O)NCc1ccc(N(C)C)nc1,-4.15
20,CC1(C)CN(CC(F)(F)F)CCN1CC(=O)NC1CCCC1,-4.28
21,COCCNC(=O)C(C)n1nc(-c2ccc(C)o2)cc(N)c1=O (stereo not given),39.4
22,Cc1nc(C)n(CCC(=O)N2CCc3ncc(Cl)cc3C2)n1,6.03
23,C[C@@H]1CN(S(=O)(=O)c2ccc(F)cc2F)C[C@]1(C)O,-1.56

row,Compound,cytotoxicity at 70.5 h [%]
1,NCCn1nc(C2CCN(C(=O)CC3CCCCC3)C2)c2nccnc21 (stereo not given),-7.33
2,O=C(Cn1ccc2sccc2c1=O)NCCC1=CCCCC1,-8.78
3,Cn1nc(COCC2CC2)c2c1CCN(Cc1cccs1)C2,-4.53
4,CN(C)c1nccc(C2CCN(c3ncccn3)CC2)n1,-0.97
5,COCCN(C(=O)c1ccn(-c2ccc(OC)cc2)n1)C(C)C(N)=O (stereo not given),20.6
6,CCN(CC)C(=O)CCCNC(=O)Cc1nc(-c2ccco2)oc1C,-12.3
7,Fc1ccc(CN2CCC(c3nccnc3-n3ccnc3)CC2)cc1,2.75
8,CC(=O)Nc1ccc(CNCC(O)c2ccccc2)cc1 (stereo not given),-2.04
9,CN(C)C(=O)NCC1CC2(CO1)CN(c1nncs1)C2 (stereo not given),1.71
10,CCN(CC(=O)N(C)C)C(=O)c1cc(-c2cccc(Cl)c2)no1,3.05
11,Cc1cc(C(=O)N2CCO[C@H]3[C@H](Oc4ccccn4)CC[C@@H]32)c(C)[nH]1,-8.01
12,CC(CCCC(C)(C)O)Nc1ccc(-c2nccn2C)nn1 (stereo not given),0.443
13,NC(=O)c1cnc2n1CCN(C(=O)c1ccc(Cn3cccc3)cc1)C2,5.38
14,Oc1cc(C2CCCCN2Cc2ccsc2)nc(-c2ccncc2)n1 (stereo not given),-9.16
15,Cc1ccc(CN2CCN(Cc3cc(C)n[nH]3)CC2CCO)cc1 (stereo not given),12.1
16,CC(C)[C@H](N)CC(=O)Nc1nc(-c2cnc(N3CCOCC3)nc2)cs1,-1.39
17,Cc1nccc(CNC(=O)Nc2cc(C(F)(F)F)c[nH]c2=O)n1,-5.34
18,Cc1c[nH]nc1C1CCCCN1C(=O)Cn1cc(Cl)cn1 (stereo not given),-15.8
19,COCCN1CC(C(=O)NCc2ccc(C)s2)CC1=O (stereo not given),-1.18
20,CCOCC1CC2(CCN(Cc3ccccn3)CC2)CO1 (stereo not given),-3.81
21,c1cncc(-c2nc3c(c(NCC4(c5ccncc5)CC4)n2)CCC3)c1,-0.48
22,COCCOc1cccc(CNCC2CN(C)CCO2)c1 (stereo not given),-0.0199

# — ChEMBL document CHEMBL3507680, “University of Dundee, Gates Library screen for HepG2 cell viability”
